Consider two molecules from publication PMC11289455 (Scientific Reports, 2024).

Experiment [1] concerns IL-12– and IL-23–dependent phosphorylation of STAT4 and STAT3. Also noted: method as in PMID 31341059. To be noted: cited from earlier work.
The target in experiment [2] is T1, Biotinylated recombinant rat IL23R (rIL23R^biot, hGH.ratIL23R.24-317.GS.Avi.TEV.8His) (rat, UniProt F1LX96 24-317, biotinylated (TurboBiotinylase)).
T1 construct: rat IL-23 receptor subunit IL-23R, extracellular domain, residues 24-317, from the construct name hGH.ratIL23R.24-317.GS.Avi.TEV.8His; A GS linker stands between the receptor and the Avi tag; The 8His tag follows a TEV site; also called rat IL-23R ECD; not shown: Avi, C-terminal, kept; His8, C-terminal, cleaved
T1 sequence (looked up): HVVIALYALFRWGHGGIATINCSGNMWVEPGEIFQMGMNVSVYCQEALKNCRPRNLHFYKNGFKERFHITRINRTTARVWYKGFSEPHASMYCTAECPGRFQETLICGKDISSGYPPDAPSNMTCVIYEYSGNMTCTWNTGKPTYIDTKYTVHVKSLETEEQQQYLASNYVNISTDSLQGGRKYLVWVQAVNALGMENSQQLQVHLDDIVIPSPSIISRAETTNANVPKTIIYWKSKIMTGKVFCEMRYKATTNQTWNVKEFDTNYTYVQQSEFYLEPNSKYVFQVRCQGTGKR
As to the kind of experiment: SPR; ~2500 RU biotinylated rat IL-23R captured on a streptavidin chip; JNJ-77242113 injected at multiple concentrations; PBS, 0.05% P20, 5% DMSO; 37 °C; association 150 s, dissociation 2000 s; Biacore 8K+, parallel kinetics, 1:1 binding model. To be noted: both partners purified.

For orientation: Kd means a measure of binding affinity in units of concentration.

Values joined by “and” are separate entries in the source; they are usually repeats but may differ in a detail not shown here. Identical values can stand only once. Positions of bridges follow the written chain, without caps; N, C: chain ends. Non-standard residues stand in square brackets, D forms with d. Trp(7-Me) = Cc1cccc2c(C[C@H](N)C(=O)O)c[nH]c12; 2Nal = N[C@@H](Cc1ccc2ccccc2c1)C(=O)O; AEF = NCCOc1ccc(C[C@H](N)C(=O)O)cc1; 3Pal = N[C@@H](Cc1cccnc1)C(=O)O; Pen = CC(C)(S)[C@H](N)C(=O)O; Thp = NC1(C(=O)O)CCOCC1; Sar = CNCC(=O)O

As to deucravacitinib, the “Effect on IL-12– and IL-23–dependent phosphorylation of STAT4 and STAT3” value in experiment [1] is “inhibits both”.

B1: JNJ-77242113 (peptide)
chain: Ac-[Pen]NT[Trp(7-Me)]K(Ac)[Pen][AEF][2Nal][Thp]EN[3Pal][Sar]-NH2
modifications: disulfide 1-6
Regarding B1, the dissociation constant (Kd) in experiment [2] was 0.0175 nM and 0.012 to 0.023 nM.
